Laboratory results as given in patent publication US10822317B2, “Methods and compositions for wound healing” (QBiotics Limited, priority 2013, dated 2020).

How the values were obtained:
[1] = system: HaCaT cells; experiment: HaCaT proliferation (MTT); type: cell-based, human; set-up: dose or concentration left out as unconfirmed; conditions: 24, 48, 120 and 168 hr; p<0.01
Description: The proliferation experiment assessed the effects of the two compounds on HaCaT proliferation (as measured by MTT) in the culture system at 4 time periods (24, 48, 120 and 168 hr).

[2] = system: TGF-β1-stimulated dermal fibroblasts; experiment: Differentiation of adult dermal fibroblasts into myofibroblasts (α-SMA expression); type: cell-based, human
Method: The effects of Compounds […] and 37 on dermal fibroblast differentiation to myofibroblasts was examined by the extent of α-SMA expression by TGF-βi-stimulated dermal fibroblasts.
Following trypsinization, fibroblasts were seeded in 8-well, Permanoxchamber slides (VWR International) in DMEM medium, containing antibiotics, 2 mM L-glutamine and 10% foetal calf serum (250 μL, all purchased from Invitrogen); at a cell density of 2.5×10^4 cells/well and maintained at 37° C. in 5% CO2/95% air for 48 h.
At 48 hr, fibroblasts were growth-arrested in serum-free DMEM for 48 hr and then replaced with serum-free DMEM (250 μL), containing Compounds 1 or 37 at concentrations of 0, 0.001, 0.01, 0.1, 1.0 and 10.0 μg/mL (3 wells/concentration/compound) and TGF-β1 (10 ng/ml, Peprotech). Fibroblasts were maintained at 37° C. in 5% CO2/95% air for 72 hr.
At 72 hr, chamber slide wells were washed with PBS (×1, 250 μL) and fixed in 4% paraformaldehyde (100 μL/well) for 10 min. The chamber slide wells were then washed again with PBS (×1, 250 μl), treated with 0.1% Triton X-100 in PBS (100 μL, Sigma) for 5 min and re-washed with PBS (×1, 250 μL). Wells were blocked with 1% BSA in PBS (250 μL, Sigma) for 1 h and washed (×3) in 0.1% BSA/PBS.
Wells were incubated with monoclonal mouse anti-human α-SMA, clone 1A4 (1:100, 150 ul, Sigma) at 4° C. overnight, washed (×6) in 0.1% BSA/PBS and incubated with Alexa Fluor 488 goat anti-mouse IgG antibody (1:1000, 250 μL, Invitrogen), at room temperature for 1 h, under darkness. Chamber slides were washed (×6) in 0.1% BSA/PBS and counterstained with Hoescht 33258 solution for 30 min under darkness (1:2000, 250 μL, Sigma). Chamber were subsequently removed for slides and treated with Fluorsave (Santa Cruz) for 10 min under darkness. Slides were viewed by fluorescence microscopy (Leica Microsystem), with digital images being capturedat ×200 magnification. Digital images were processed using HC Image J Software.

[3] = system: immortalised human keratinocyte cells (HaCaT); experiment: Scratch repopulation and closure with HaCaT; type: cell-based; conditions: 48 hours; for % of scratch wound area remaining open after treatment: ± standard error
Method: The ability of immortalised human keratinocyte cells (HaCaT) to migrate across a scratch wound made in a confluent monolayer following treatment with either Compound 1 or Compound 37 was determined by the following method.
Trypsinised HaCaT cells were seeded at a cell density of 7.4×10^4 cells/mL in 24-well BD Falcon flat-bottomed, tissue culture plates (VWR International, UK) in 1 mL Dulbecco's Modified Eagle Medium (DMEM), supplemented with L-glutamine (2 mM), antibiotics (100 U/mL penicillin G sodium, 100 μg/mL streptomycin sulphate and 0.25 μg/mL amphotericin B); and 10% foetal calf serum (all Invitrogen Ltd., UK) to give a cell density of 7.4×10^4 cells seeded in each well. The cells were then maintained at 37° C. in a 5% CO2/95% air atmosphere overnight. The following morning, the 10% foetal calf serum-containing DMEM was replaced with serum-free DMEM and the HaCaT cells were subsequently serum-starved in DMEM for 48 hr.
After 48 hr, the serum-free DMEM was removed and a single scratch ‘wound’ made with a sterile pipette across each cell layer. Following washing twice in 1 mL PBS, Compound 1- or Compound 37-containing medium (1 mL) was added to each well. This medium consisted of DMEM, supplemented with L-glutamine (2 mM), antibiotics (as above) and 1% foetal calf serum, in addition to Compound 1 or Compound 37 at final concentrations of 0, 0.001, 0.01, 0.1, 1.0, 10 or 100 μg/mL. There were three replicate wells per concentration for each compound.
The HaCaT cultures were maintained at 37° C. in a 5% CO2/95% air atmosphere and the repopulation of the denuded ‘wound’ areas monitored by Time-Lapse Confocal Microscopy (Leica TCS SP5 Confocal Microscope; Leica Microsystems UK Ltd., UK) at 100× magnification, with digital images captured at fixed positions every 20 min over a 48 h period. The digital image sequences were exported and prepared as .avi movie files, using LAS AF Software (Leica Microsystems). The rates of HaCaT wound closure in vitro were quantified using ImageJ Software (ImageJ 1.37v; http://rsb.info.nih.gov/ij/). The data was analysed by One Way Analysis of Variance with post-test Tukey analysis. Each experiment was performed on 3 separate occasions.

[4] = system: HaCaT cells; experiment: HaCaT scratch repopulation with Mitomycin C (migration study); type: cell-based, human; conditions: with 1 μg/mL Mitomycin C; 0.001 to 1.0 μg/mL; p<0.05

CC=C(C)C(=O)OC1C(C)C2(O)C(C(O)C3(CO)OC3C3(O)C(=O)C(C)=CC32)C2C(C)(C)C12OC(=O)C(C)CC (centres unmarked) [Compound 37, 12-tigloyl-13-(2-methylbutanoyl)-5,6-epoxy-4,5,9,12,13,20-hexahydroxy-1-tigliaen-3-one]
proliferation of HaCaT cells (MTT) vs control with no compound [1]: increasing proliferation | differentiation of TGF-β1-treated adult dermal fibroblasts into myofibroblasts ([2]; 0.001 to 10.0 μg/mL, 72 hr): affected differentiation into myofibroblasts in a concentration-dependent manner | myofibroblast morphology ([2]; 0.1 to 1.0 μg/mL): subtle alterations in myofibroblast morphology | α-SMA stress fibre formation and polygonal morphology development ([2]; TGF-β1 10 ng/ml, 72 hr, 10 μg/mL): disruptive effect on α-SMA stress fibre formation and polygonal morphology development | % of scratch wound area remaining open after treatment ([3]; 0.001 μg/ml): 4.3 ± 4.1% | % of scratch wound area remaining open after treatment ([3]; 0.01 μg/ml): 0.9 ± 1.5% | % of scratch wound area remaining open after treatment ([3]; 0.1 μg/ml): 2.2 ± 3.4% | % of scratch wound area remaining open after treatment ([3]; 1.0 μg/ml): 30.0 ± 5.3% | % of scratch wound area remaining open after treatment ([3]; 10 μg/ml): 37.1 ± 7.1% | rate of scratch closure compared to the control treatment ([3]; 0.001, 0.01, 0.1 and 1.0 μg/ml, p<0.01): increased | scratch repopulation and closure (migration study) [4]: enhanced
